Paper PMC6792352, “Limited Chemical Structural Diversity Found to Modulate Thyroid Hormone Receptor in the Tox21 Chemical Library” (Environmental Health Perspectives, 2019)
Where a name gives a salt, the structure may show the parent alone.

Experiment: in vitro
Conditions: rat, gh3-tre-luc cells

Structure (SMILES)	CC50 at 24 h (AC50 (uM) modified / 1000)	further results
CN1CCCC(n2nc(Cc3ccc(Cl)cc3)c3ccccc3c2=O)CC1 (centres unmarked) [Azelastine hydrochloride]	12.6 µM	
CC1=C(C(=O)OC(C)C)C(c2cccc([N+](=O)[O-])c2)C(C(=O)OC2CN(C(c3ccccc3)c3ccccc3)C2)=C(N)N1 (centres unmarked) [Azelnidipine]	4.41 µM	
CCN1CCc2nc(N)oc2CC1 [Azepexole hydrochloride]	> 50 µM	
CCOP(=S)(OCC)SCn1nnc2ccccc2c1=O [Azinphos-ethyl]		CC50 at 24 h (AC50 (uM) modified / 1000, Tox21_110001=Tox21_301421, viability, 1 nM T3 present, 24 h): > 90 µM
CSc1nc(N=[N+]=[N-])nc(NC(C)C)n1 [Aziprotryne]		CC50 at 24 h (AC50 (uM) modified / 1000, Tox21_110001=Tox21_301004, viability, 1 nM T3 present, 24 h): > 90 µM
CC1(C)S[C@@H]2[C@H](NC(=O)[C@H](NC(=O)N3CCNC3=O)c3ccccc3)C(=O)N2[C@H]1C(=O)O [Azlocillin sodium]	> 20 µM	
c1ccc(/N=N/c2ccccc2)cc1 [Azobenzene]	> 90 µM	
CC(C)(C#N)N=NC(C)(C)C#N [Azobisisobutyronitrile]	> 90 µM	
NC(=O)/N=N/C(N)=O [Azodicarbonamide]	> 90 µM	
NS(=O)(=O)c1cc(-c2nnn[nH]2)c(NCc2cccs2)cc1Cl [Azosemide]	> 50 µM	
[O-][N+](=Nc1ccccc1)c1ccccc1 [Azoxybenzene]	> 90 µM	
CO/C=C(/C(=O)OC)c1ccccc1Oc1cc(Oc2ccccc2C#N)ncn1 [Azoxystrobin]	> 100 µM	
C[C@H]1[C@H](NC(=O)/C(=N\OC(C)(C)C(=O)O)c2csc(N)n2)C(=O)N1S(=O)(=O)O [Aztreonam]	> 20 µM	
CCOC(=O)OC(C)OC(=O)[C@@H]1N2C(=O)[C@@H](NC(=O)[C@H](N)c3ccccc3)[C@H]2SC1(C)C (some centres unmarked) [Bacampicillin hydrochloride]	> 20 µM	
NCC(CC(=O)O)c1ccc(Cl)cc1 (centres unmarked) [Baclofen]	> 50 µM	
CNC1CCCN(c2c(F)cc3c(=O)c(C(=O)O)cn(C4CC4)c3c2OC)C1 (centres unmarked) [Balofloxacin]	> 50 µM	
O=C(O)CCNC(=O)c1ccc(/N=N/c2ccc(O)c(C(=O)O)c2)cc1 [Balsalazide]	> 50 µM	
CN(C)C(=O)Oc1cc(OC(=O)N(C)C)cc(C(O)CNC(C)(C)C)c1 (centres unmarked) [Bambuterol hydrochloride]	> 20 µM	
CCCCNCC(O)c1ccc(O)cc1 (centres unmarked) [Bamethan]	> 50 µM	
CCN(CCO)CCn1c(Cc2ccccc2)nc2c1c(=O)n(C)c(=O)n2C [Bamifylline Hydrochloride]	> 50 µM	
O=C1CC(=O)NC(=O)N1 [Barbituric acid]	> 90 µM	
COC(=O)C1=C(C)NC(C)=C(C(=O)O[C@H]2CCN(Cc3ccccc3)C2)[C@H]1c1cccc([N+](=O)[O-])c1 [Barnidipine hydrochloride]	16.3 µM	
CCN=C1C=CC(=C(c2ccc(N(CC)CC)cc2)c2ccc(N(CC)CC)cc2)c2ccccc21 [Basic Blue 7]	0.714 µM	
Cc1c(-c2ccc(O)cc2)n(Cc2ccc(OCCN3CCCCCC3)cc2)c2ccc(O)cc12 [Bazedoxifene acetate]	8.31 µM	
CCC(=O)OCC(=O)[C@@]1(OC(=O)CC)[C@@H](C)C[C@H]2[C@@H]3CCC4=CC(=O)C=C[C@]4(C)[C@@]3(Cl)[C@@H](O)C[C@@]21C [Beclazone]	> 50 µM	
C[C@H]1C[C@H]2[C@@H]3CCC4=CC(=O)C=C[C@]4(C)[C@@]3(Cl)[C@@H](O)C[C@]2(C)[C@@]1(O)C(=O)CO [Beclomethasone]	> 50 µM	
O=C(c1cc2ccccc2o1)N1CCN(Cc2ccccc2)CC1 [Befuraline]	> 50 µM	

Structure (SMILES)	CC50 at 24 h (AC50 (uM) modified / 1000)	further results
NC[C@H]1O[C@H](O[C@H]2[C@H](O)[C@@H](O[C@H]3O[C@H](CO)[C@@H](O)[C@H](N)[C@H]3O)[C@H](N)C[C@@H]2N)[C@H](N)[C@@H](O)[C@@H]1O [Bekanamycin sulfate]	> 50 µM	
CCC1(C)CC(=O)NC(=O)C1 [Bemegride]		CC50 at 24 h (AC50 (uM) modified / 1000, Tox21_110001=Tox21_110352, viability, 1 nM T3 present, 24 h): > 20 µM
CCN(CC)CCOC(=O)C(O)(c1ccccc1)c1ccccc1 [Benactyzine]	> 50 µM	
COC(=O)C(C)N(C(=O)Cc1ccccc1)c1c(C)cccc1C (centres unmarked) [Benalaxyl]	> 90 µM	
O=C(O)c1ccc(NC2OC[C@@H](O)[C@H](O)[C@H]2O)cc1 (some centres unmarked) [Benaxibine]	> 50 µM	
CCOC(=O)[C@H](CCc1ccccc1)N[C@H]1CCc2ccccc2N(CC(=O)O)C1=O [Benazepril hydrochloride]	5.95 µM	
CCOC(=O)Cn1c(=O)sc2cccc(Cl)c21 [Benazolin-ethyl]	> 90 µM	
Cn1c(CCCC(=O)O)nc2cc(N(CCCl)CCCl)ccc21 [Bendamustine]	> 50 µM	
O=C(O)COc1nn(Cc2ccccc2)c2ccccc12 [Bendazac sodium]	> 50 µM	
CNC(=O)Oc1cccc2c1OC(C)(C)O2 [Bendiocarb]		CC50 at 24 h (AC50 (uM) modified / 1000, Tox21_110001=Tox21_201562, viability, 1 nM T3 present, 24 h): > 90 µM
NS(=O)(=O)c1cc2c(cc1C(F)(F)F)NC(Cc1ccccc1)NS2(=O)=O (centres unmarked) [Bendroflumethiazide]	> 20 µM	
CC(Cc1cccc(C(F)(F)F)c1)NCCOC(=O)c1ccccc1 (centres unmarked) [Benfluorex hydrochloride]	27.3 µM	
C/C(=C(\CCOP(=O)(O)O)SC(=O)c1ccccc1)N(C=O)Cc1cnc(C)nc1N [Benfotiamine]	> 20 µM	
CCOC(=O)CCN(SN(C)C(=O)Oc1cccc2c1OC(C)(C)C2)C(C)C [Benfuracarb]		CC50 at 24 h (AC50 (uM) modified / 1000, Tox21_110001=Tox21_301582, viability, 1 nM T3 present, 24 h): 64 µM
CC(NNC(=O)c1ccccc1)c1ccccc1 (centres unmarked) [Benmoxin]	> 50 µM	
O=C(Nc1ccccc1)c1ccccc1I [Benodanil]		CC50 at 24 h (AC50 (uM) modified / 1000, Tox21_110001=Tox21_300420, viability, 1 nM T3 present, 24 h): > 90 µM
CCCCNC(=O)n1c(NC(=O)OC)nc2ccccc21 [Benomyl]	> 90 µM	
CC(=O)Nc1ccc(OC(=O)c2ccccc2OC(C)=O)cc1 [Benorylate]	> 50 µM	
CCCCOc1cc(C(=O)OCCN(CC)CC)ccc1N [Benoxinate hydrochloride]	> 20 µM	
O=C(CCCN1CCC(n2c(O)nc3ccccc32)CC1)c1ccc(F)cc1 [Benperidol]	> 20 µM	
NC(CO)C(=O)NNCc1ccc(O)c(O)c1O (centres unmarked) [Benserazide hydrochloride]	> 50 µM	
COC(=O)c1ccccc1CS(=O)(=O)NC(=O)Nc1nc(OC)cc(OC)n1 [Bensulfuron-methyl]	> 90 µM	
CC(C)N1C(=O)c2ccccc2NS1(=O)=O [Bentazone]	> 90 µM	
O=C(O)c1ccc(NC(=O)[C@H](Cc2ccc(O)cc2)NC(=O)c2ccccc2)cc1 [Bentiromide sodium]	> 50 µM	
c1ccc2cc3c(ccc4ccccc43)cc2c1 [Benz(a)anthracene]	> 90 µM	
CC[N+](C)(CC)CCOC(=O)C(O)(c1ccccc1)c1ccccc1 [Benzactyzine methobromide]	> 50 µM	
O=C(O)CONC(=O)c1ccccc1 [Benzadox]	> 90 µM	

Structure (SMILES)	CC50 at 24 h (AC50 (uM) modified / 1000)	further results
ClC(Cl)c1ccccc1 [Benzal chloride]	> 90 µM	
O=Cc1ccccc1 [Benzaldehyde]	> 90 µM	
NC(=O)c1ccccc1 [Benzamide]	> 90 µM	
CCc1oc2ccccc2c1C(=O)c1cc(Br)c(O)c(Br)c1 [Benzbromarone]	39.4 µM	
c1ccccc1 [Benzene]	> 90 µM	
N=C(N)c1ccccc1 [Benzenecarboximidamide, monohydrochloride]	> 90 µM	
SCc1ccccc1 [Benzenemethanethiol]		CC50 at 24 h (AC50 (uM) modified / 1000, Tox21_110001=Tox21_200129, viability, 1 nM T3 present, 24 h): > 90 µM
O=S(=O)(O)c1ccccc1 [Benzenesulfonic acid]	> 90 µM	
O=S(=O)(Cl)c1ccccc1 [Benzenesulfonyl chloride]	> 90 µM	
Sc1ccccc1 [Benzenethiol]	> 90 µM	
O=C1CCC(c2ccccc2)(C2CCN(Cc3ccccc3)CC2)C(=O)N1 (centres unmarked) [Benzetimide]	> 50 µM	
Nc1ccc(-c2ccc(N)cc2)cc1 [Benzidine dihydrochloride]		CC50 at 24 h (AC50 (uM) modified / 1000, Tox21_110001=Tox21_202584, viability, 1 nM T3 present, 24 h): > 50 µM
Nc1ccc(-c2ccc(N)cc2)cc1 [Benzidine]		CC50 at 24 h (AC50 (uM) modified / 1000, Tox21_110001=Tox21_202359, viability, 1 nM T3 present, 24 h): > 90 µM
c1ccc2[nH]cnc2c1 [Benzimidazole]	> 90 µM	
CCc1oc2ccccc2c1C(=O)c1cc(I)c(O)c(I)c1 [Benziodarone]	24.8 µM	
O=C(Cn1ccnc1[N+](=O)[O-])NCc1ccccc1 [Benznidazole]	> 50 µM	
c1ccc2c(c1)cc1ccc3cccc4ccc2c1c34 [Benzo(a)pyrene]	> 90 µM	
c1ccc2c(c1)-c1cccc3c1c-2cc1ccccc13 [Benzo(b)fluoranthene]	> 90 µM	
c1ccc2c(c1)c1cccc3ccc4cccc2c4c31 [Benzo(e)pyrene]	> 90 µM	
c1ccc2c(c1)ccc1ncccc12 [Benzo(f)quinoline]	> 90 µM	
c1cc2ccc3ccc4ccc5cccc6c(c1)c2c3c4c56 [Benzo(g,h,i)perylene]	> 4 µM	
c1ccc2cc3c(cc2c1)-c1cccc2cccc-3c12 [Benzo(k)fluoranthene]		CC50 at 24 h (AC50 (uM) modified / 1000, Tox21_110001=Tox21_200721, viability, 1 nM T3 present, 24 h): > 90 µM
CCC1(c2ccccc2)C(=O)NC(=O)N(C(=O)c2ccccc2)C1=O (centres unmarked) [Benzobarbital]	> 50 µM	
O=C(OC(=O)c1ccccc1)c1ccccc1 [Benzoic anhydride]	> 90 µM	
CC(=O)OC(C(=O)c1ccccc1)c1ccccc1 (centres unmarked) [Benzoin acetate]	> 90 µM	
O=C(c1ccccc1)C(O)c1ccccc1 (centres unmarked) [Benzoin]	> 90 µM	
